Laboratory results taken from ChEMBL document CHEMBL3132800, “Identification of novel inhibitors of p53MDM2 interaction facilitated by pharmacophore-based virtual screening combining molecular docking strategy” (Medchemcomm, 2013).

How the values were obtained:
[1] = system: SJSA-1; experiment: Cytotoxicity against human SJSA1 cells after 72 hrs by SRB assay; assay type: functional, cell-based; details: SJSA-1, 72 h
[2] = system: SW-620; experiment: Cytotoxicity against human SW620 cells after 72 hrs by SRB assay; assay type: functional, cell-based; details: SW-620, 72 h
[3] = system: HCT-116; experiment: Cytotoxicity against human HCT116 cells after 72 hrs by SRB assay; assay type: functional, cell-based; details: HCT-116, 72 h
[4] = target: Tumour suppressor p53/oncoprotein Mdm2 (Homo sapiens, UniProt Q00987); experiment: Inhibition of p53-MDM2 (1 to 118 residues) interaction (unknown origin) expressed in Escherichia coli BL-21 (DE3) assessed as inhibition of MDM2 binding by fluorescence polarization competitive binding assay
Chain of Tumour suppressor p53/oncoprotein Mdm2 (P04637 whole entry, the tested form may be a part): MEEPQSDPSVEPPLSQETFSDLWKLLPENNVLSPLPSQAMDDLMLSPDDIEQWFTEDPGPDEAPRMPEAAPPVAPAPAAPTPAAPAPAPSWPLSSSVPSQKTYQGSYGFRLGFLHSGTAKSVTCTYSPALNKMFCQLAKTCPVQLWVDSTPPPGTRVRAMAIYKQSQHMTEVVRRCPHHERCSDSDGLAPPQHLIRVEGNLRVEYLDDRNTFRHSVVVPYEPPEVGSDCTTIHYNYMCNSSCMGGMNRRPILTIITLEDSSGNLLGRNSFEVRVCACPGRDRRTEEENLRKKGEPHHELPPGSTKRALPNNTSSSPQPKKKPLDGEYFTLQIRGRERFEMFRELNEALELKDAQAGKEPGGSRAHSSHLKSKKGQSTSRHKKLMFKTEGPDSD
Chain of Tumour suppressor p53/oncoprotein Mdm2 (Q00987 whole entry, the tested form may be a part): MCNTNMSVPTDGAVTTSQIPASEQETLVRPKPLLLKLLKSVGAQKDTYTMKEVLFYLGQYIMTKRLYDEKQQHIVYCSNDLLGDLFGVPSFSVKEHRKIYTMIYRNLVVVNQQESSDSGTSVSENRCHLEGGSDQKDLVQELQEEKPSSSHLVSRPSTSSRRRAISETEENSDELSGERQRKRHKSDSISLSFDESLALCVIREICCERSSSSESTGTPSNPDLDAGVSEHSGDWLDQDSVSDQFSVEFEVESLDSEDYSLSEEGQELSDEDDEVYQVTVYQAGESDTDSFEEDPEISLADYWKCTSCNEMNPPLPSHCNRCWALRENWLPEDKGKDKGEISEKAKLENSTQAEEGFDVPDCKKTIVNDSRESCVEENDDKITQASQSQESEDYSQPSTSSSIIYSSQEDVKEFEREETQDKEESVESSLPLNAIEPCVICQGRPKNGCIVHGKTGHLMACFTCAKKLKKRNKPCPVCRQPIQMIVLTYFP

[5] = system: HCT-116; experiment: Cytotoxicity against human HCT116 cells after 72 hrs by SRB assay relative to Nutlin-3; assay type: functional
[6] = system: PC-3; experiment: Cytotoxicity against human PC3 cells after 72 hrs by SRB assay; assay type: functional, cell-based; details: PC-3, 72 h
[7] = system: A549; experiment: Cytotoxicity against human A549 cells after 72 hrs by SRB assay; assay type: functional, cell-based; details: A549, 72 h

For `Nc1sc(-c2ccc(Cl)cc2)c(-c2ccc(Cl)cc2)c1C(=O)Nc1ccccc1`, the IC50 [1] was > 500 µM, the IC50 [2] was 39.7 µM and the IC50 [3] was 14.5 µM. The IC50 [4] was > 50 µM.

With `COC(=O)c1c(N)sc(-c2ccc(Cl)cc2)c1-c1ccc(Cl)cc1` the “Ratio IC50” value [5] was 1.3, the IC50 [1] was 40.9 µM and the IC50 [2] was 3.23 µM. The IC50 [3] was 1.66 µM and the IC50 [4] was 4.23 µM.

For `Nc1sc(-c2ccc(Cl)cc2)c(-c2ccc(Cl)cc2)c1C(=O)NC1CC1`, the “Ratio IC50” value [5] was 1.3, the IC50 [1] was 31.9 µM and the IC50 [2] was 1.74 µM. It also gave an IC50 [3] of 0.24 µM and an IC50 [4] of 2.08 µM.

For `Nc1sc(-c2ccc(Cl)cc2)c(-c2ccc(Cl)cc2)c1C(=O)NC1CCCCC1`, the “Ratio IC50” value [5] was 1.3, the IC50 [1] was 102 µM and the IC50 [2] was 3.07 µM. The IC50 [3] was 0.59 µM and the IC50 [4] was 0.9 µM.

In the case of `Nc1sc(-c2ccc(Cl)cc2)c(-c2ccc(Cl)cc2)c1C(=O)N1CCCC1`, the “Ratio IC50” value [5] is reported as 1.3, the IC50 [1] is reported as 17.6 µM and the IC50 [2] is reported as 3.87 µM. For the same compound, the IC50 [3] was 3.63 µM and the IC50 [4] was 2.84 µM.

`COc1ccc(C2=NC(c3ccc(Cl)cc3)C(c3ccc(Cl)cc3)N2C(=O)N2CCNC(=O)C2)c(OC(C)C)c1` (racemic) showed an IC50 [1] of 1.81 µM, an IC50 [2] of 0.38 µM and an IC50 [6] of 6.37 µM. For the same compound, the IC50 [3] was 4.63 µM and the IC50 [7] was 0.41 µM.
